Compound: CC1=C(N=C(N=C1N)[C@H](CC(=O)N)NC[C@@H](C(=O)N)N)C(=O)N[C@@H]([C@H](C2=CN=CN2)OC3C(C(C(C(O3)CO)O)O)OC4C(C(C(C(O4)CO)O)OC(=O)N)O)C(=O)N[C@H](C)[C@H]([C@H](C)C(=O)N[C@@H]([C@@H](C)O)C(=O)NCCC5=NC(=CS5)C6=NC(=CS6)C(=O)NCCC[S+](C)C)O [Bleomycin] + CCNC(=O)c1noc(-c2cc(C(C)C)c(O)cc2O)c1-c1ccc(CN2CCOCC2)cc1 [Luminespib] (partner 0.01 µM)
Assay: relative viability (nuclei count vs DMSO), 5 days (fraction); higher = more cells survive
Conditions: first compound 0.01 µM; main component drawn
Outline: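 For relative viability, nuclei counts in treated wells were divided by those in vehicle wells. Lung cancer cell lines had been pin-tool dosed in 1536-well plates the day after seeding and cultured for 5 days, then fixed and stained in one step (final 0.05% Triton X-100, 1% formaldehyde, 1 ug/ml Hoechst) and imaged at 4×. Doses were one drug alone or a fixed anchor-drug dose plus five library-drug doses (not always all listed) in √10 steps, and values are duplicate-plate medians.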

First: NCI-H1755
Second: NCI-H2023
The relative viability of the first is higher: 0.582 for the first, 0.526 for the second.

Going from HCC-15 to NCI-H1793, the relative viability falls from 0.183 to 0.169.

First: PC-3 [JPC-3]
Second: EKVX
The relative viability of the first is lower: 0.685 for the first, 0.79 for the second.

Going from LC-2-ad to NCI-H1944, the relative viability falls from 0.68 to 0.363.

Going from NCI-H1975 to SK-LU-1, the relative viability falls from 0.29 to 0.197.

Going from ABC-1 to NCI-H358, the relative viability falls from 0.578 to 0.307.

First: NCI-H661
Second: RERF-LC-KJ
The relative viability of the first is higher: 0.78 for the first, 0.555 for the second.

Same assay, conditions: first compound 0.03162 µM; main component drawn

First: NCI-H1755
Second: NCI-H2023
The relative viability of the first is higher: 0.695 for the first, 0.531 for the second.

First: HCC-15
Second: NCI-H1793
The relative viability of the first is higher: 0.231 for the first, 0.157 for the second.

Going from PC-3 [JPC-3] to EKVX, the relative viability rises from 0.665 to 0.824.

Compared with LC-2-ad, NCI-H1944 is lower in relative viability: 0.572 for the first, 0.318 for the second.

Going from NCI-H1975 to SK-LU-1, the relative viability rises from 0.168 to 0.202.

Compared with ABC-1, NCI-H358 is lower in relative viability: 0.737 for the first, 0.251 for the second.

First: NCI-H661
Second: RERF-LC-KJ
The relative viability of the first is higher: 0.807 for the first, 0.479 for the second.

Same assay, conditions: first compound 0.1 µM; main component drawn

First: NCI-H1755
Second: NCI-H2023
The relative viability of the first is lower: 0.22 for the first, 0.454 for the second.

Compared with HCC-15, NCI-H1793 is higher in relative viability: 0.203 for the first, 0.286 for the second.

Going from PC-3 [JPC-3] to EKVX, the relative viability rises from 0.621 to 0.804.

First: LC-2-ad
Second: NCI-H1944
The relative viability of the first is higher: 0.563 for the first, 0.269 for the second.

First: NCI-H1975
Second: SK-LU-1
The relative viability of the first is lower: 0.177 for the first, 0.272 for the second.

First: ABC-1
Second: NCI-H358
The relative viability of the first is higher: 0.561 for the first, 0.27 for the second.

Going from NCI-H661 to RERF-LC-KJ, the relative viability falls from 0.564 to 0.461.

Same assay, conditions: first compound 0.3162 µM; main component drawn

Going from NCI-H1755 to NCI-H2023, the relative viability falls from 0.33 to 0.128.

Going from HCC-15 to NCI-H1793, the relative viability rises from 0.164 to 0.175.

Going from PC-3 [JPC-3] to EKVX, the relative viability falls from 0.55 to 0.357.

Compared with LC-2-ad, NCI-H1944 is lower in relative viability: 0.29 for the first, 0.176 for the second.

Compared with NCI-H1975, SK-LU-1 is higher in relative viability: 0.164 for the first, 0.216 for the second.

Going from ABC-1 to NCI-H358, the relative viability rises from 0.198 to 0.23.

Compared with NCI-H661, RERF-LC-KJ is higher in relative viability: 0.299 for the first, 0.307 for the second.

Same assay, conditions: first compound 1 µM; main component drawn

Going from NCI-H1755 to NCI-H2023, the relative viability falls from 0.244 to 0.0778.

Going from HCC-15 to NCI-H1793, the relative viability rises from 0.144 to 0.153.

First: PC-3 [JPC-3]
Second: EKVX
The relative viability of the first is higher: 0.418 for the first, 0.264 for the second.

Compared with LC-2-ad, NCI-H1944 is lower in relative viability: 0.262 for the first, 0.148 for the second.

Going from NCI-H1975 to SK-LU-1, the relative viability rises from 0.178 to 0.191.

First: ABC-1
Second: NCI-H358
The relative viability of the first is lower: 0.225 for the first, 0.283 for the second.

NCI-H661 was tested, and the relative viability was 0.284.
